Six compounds from patent US20250244310A1, “METHODS OF IDENTIFICATION AND TARGETING OF MASTER KINASES IN CANCER” (The Trustees of Columbia University in the City of New York, priority 2022, published 2025) can be followed below.

Bounds are passed on as bounds.

In experiment [1] the test system is AKT-ser-473 and STAT3-tyr-705 phosphorylation. Briefly: Western blot of GPM PDO cells treated with BJE6-106. The class given is cell-based, human. To be noted: BJE6-106 at 50 µM, time course, FIG. 5d. An excerpt:
(§1) V9131), and j-actin 1:10,000 (Sigma, no. A5441).

In experiment [2] the test system is GPM PDO cells. Briefly: Colony-forming (clonogenic) assay of GPM PDO cells treated with BJE6-106. The format is cell-based, human. To be noted: FIG. 5c. The method, then:
Cell growth and clonogenic assay. Time course analysis of the cellular growth of shPRKCD infected PDOs or the empty vector was performed by plating 4,500 cells per well in 96-well plates. Viability was determined using CellTiterGlo assay reagent (Promega, G7570) and the GloMax-Multi+ Microplate Multimode Reader (Promega). Data are mean±s.d. of five replicates, and experiments were repeated twice. For clonogenic assay of PDO cells treated with increasing concentration of BJE6-106, 1,500 cells were plated in 6-well plates in triplicate. Cells were fixed in methanol and stained with crystal violet 2 weeks later. Colonies with more than 50 cells were scored. Data are mean±s.d. of triplicate observations from one representative experiment. Experiments were repeated twice.

In experiment [3] the test system is BRCA cell lines. Briefly: DepMap menadione survival ratio, BRCA cell lines. The class given is cell-based. To be noted: 26 BRCA cell lines from DepMap; p=0.008. An excerpt: (§2) We used the BRCA and LUSC cell lines cohorts from DepMap for which both RNA-Seq expression and menadione survival ratio from PRISM Repurposing Primary Screen were available (n=26 for BRCA and n=71 for LUSC)^94. For each cell line, we used the transcriptomic profile to calculated the NES of the four functional GBM subtypes by MWW-GST using gene signatures obtained from the analysis of TCGA samples. Each cell line was classified according the highest subtype activity (NES). We assessed the difference in survival ratio between the mitochondrial cell lines and the others using two-sided Student t-test, unequal variance.

Experiment [4] has as its system LUSC cell lines. Briefly: DepMap menadione survival ratio, LUSC cell lines. The class given is cell-based. The following applies: 71 LUSC cell lines from DepMap; p=0.076.
Source text: as §2

The test system of experiment [5] is GPM PDOs. The experiment is described as follows: Irradiation-drug combination viability, GPM PDOs. The following applies: eight GPM PDOs; FIG. 5k. The format is cell-based, human. The method, then: (§3) Cells were cultured in DMEM/F12 medium supplemented with N-2, B-27, EGF and FGF. Cells were plated in 130 μl in opaque white 96-well plates. Twenty-four hrs later cells were treated with 3-fold serial dilutions of compounds as indicated in six replicates for 72 hrs. Viability was determined using CellTiterGlo assay reagent (Promega, G7570) and GloMax-Multi+ Microplate Multimode Reader (Promega). For the irradiation-drug combination treatment, PDOs cells were plated in 96 well plates 24 hrs before treatment. Cells were treated with 3-fold serial dilutions of M3814 two hrs before exposure to various irradiation doses (2, 4, 8 Gy at 0.7 Gy/min) from a ^137Cs source (GammaCell 40 irradiator, Teratronics). Mock irradiated cells were cultured in parallel. Viability was determined 96 hrs later using CellTiterGlo assay reagent (Promega, G7570) and GloMax-Multi+ Microplate Multimode Reader (Promega). Data are mean±s.d. of the viability ratio from 6 observations in 8 PPR and 8 GPM PDOs. Experiments were performed at least twice with similar results. Clonogenic assays for the evaluation of irradiation-drug combination were performed in 96 well plates. Each experimental point was plated in 3 independent 96 well plates. The number of wells containing PDO spheres were scored and the value of control untreated cell was considered 100% clonogenicity for the specific PDO. […]

The test system of experiment [6] is phosphorylation of serine-343 of NBS1 and serine-824 of KAP1. Briefly: Western blot of PPR PDO cells, irradiation plus nedisertib: double-strand break markers. To be noted: PPR PDOs, until 24 hours after irradiation, FIG. 5l. The class given is cell-based, human.
Source text: as §1
A general note: A western blot detects proteins with antibodies after separation by electrophoresis.

The subject of experiment [7] is PPR GBM PDOs. Briefly: Irradiation-drug combination viability, PPR PDOs. The format is cell-based, human. As for the experimental part: as §3
For experiment [8], the system named is PPR and GPM PDOs. The experiment is described as follows: Clonogenic assay for irradiation-drug combination. The class given is cell-based, human. The following applies: two PPR and GPM PDOs, irradiation plus nedisertib; FIG. 15b. As for the experimental part: as §3
Experiment [9] deals with serine-2056 phosphorylation of DNA-PKcs. To be noted: irradiated PPR PDO cells; FIG. 5l.
Method: Cells were lysed in RIPA buffer (50 mM Tris-HCl pH 7.5, 150 mM NaCl, 1 mM EDTA, 1% NP40, 0.5% sodium dexoycholate, 0.1% sodium dodecyl sulfate, 1.5 mM Na3VO4, 50 mM sodiumfluoride, 10 mM sodium pyrophosphate, 10 mM β-glycerolphosphate and EDTA-free protease inhibitor cocktail; Roche). Lysates briefly sonicated, cleared by centrifugation at 15,000 r.p.m. for 15 min at 4° C., separated by SDS-polyacrylamide gel electrophoresis and transferred to polyvinylidene difluoride membrane. Membranes were blocked in Tris-buffered saline with 5% nonfat milk and 0.1% Tween 20 and probed with primary antibodies overnight at 4° C. Antibodies0 and concentrations were as follows: p-DNA-PK 1:1,000 (Ser2056, CST, #68716), DNA-PK 1:1,000 (CST, #38168), p-NBS1 1:1,000 (Ser343, CST, #3001), NBS1 1:1,000 (CST, #81234), p-KAP1 1:1,000 (Ser824, Abcam, ab133440), KAP1 1:1,000 (Abcam, ab109287), p-CHK1 (Ser317, CST, #12302), CHK1 (CST, #2360), p-PKCδ 1:1,000 (Tyr311, CST, #20555), PKCδ 1:1,000 (CST, #96165), p-STAT3 1:1,000 (Tyr705, CST, #91455), STAT3 1:1,000 (CST, #49045) p-AKT 1:1,000 (Ser473, CST, #40605), p-AKT 1:1,000 (Thr308, CST, #13038S), AKT 1:1,000 (CST, #49615), p-ERK1/2 1:1,000 (Thr202/Tyr204, CST, #4370), ERK1/2 1:1,000 (CST, #9102), GAPDH 1:10,000 (Abcam, ab9484), Vinculin 1:10,000 (Sigma, no. V9131), and j-actin 1:10,000 (Sigma, no. A5441). […]
The subject of experiment [10] is γH2AX foci. Briefly: Immunofluorescence analysis of γH2AX foci in PPR PDO cells. The format is cell-based, human. The following applies: IR 4 Gy plus nedisertib 556 nM, 0-24 hr, FIG. 5m. The method, then: Cells were fixed with 4% paraformaldehyde, permeabilized with cold methanol for 90 seconds at 4° C., and blocked with 5% BSA, 0.05% Triton X-100 in PBS for 30 minutes. Cells were exposed to primary antibody phospho-H2AX 1:500 (S139, CST, #2577) for one hour at room temperature followed by Cy3-conjugated anti rabbit (Invitrogen, A10520) for one hour at room temperature. Nuclei were stained with DAPI (Sigma). Images were acquired using a Nikon Ti Eclipse inverted microscope for spinning-disk confocal microscopy equipped with a Plan Apochromat 60× oil/1.4 NA DIC objective. Counting of TH2AX foci in individual nuclei were analyzed by ImageJ (NIH, Bethesda, USA) by specific in-built find Maxima>Prominence>Point Selection plug-in. Minimum 50 nuclei in at least ten representative images were included for analysis in each treatment group.

Experiment [11] concerns phosphorylation of PKCδ on tyr-311. The experiment is described as follows: Western blot of GPM PDOs incubated with IGF-I, IGF-II or insulin. The format is cell-based, human. To be noted: IGF-I 10 ng/ml, IGF-II 10 ng/ml, insulin 100 ng/ml, FIGS. 14b, c.
Source text: as §1

For the compound `CC1(C)C=Cc2cc(CCn3c4ccccc4c4ccccc43)cc(C=O)c2O1` [BJE-10676], the “AKT-ser-473 and STAT3-tyr-705 phosphorylation” value in [1] was “time-dependent decrease of AKT-ser-473 and STAT3-tyr-705 phosphorylation”. In addition, the colony formation result in experiment [2] was “dose-dependent inhibition of colony formation”.
For `CC1=CC(=O)c2ccccc2C1=O` [menadione], the “menadione survival ratio, difference between mitochondrial cell lines versus the others, log2(FC)” value in experiment [3] was −1.31; in experiment [4], −0.63.
For the compound `COc1ccc([C@@H](O)c2cc(-c3ncnc4cc(N5CCOCC5)ccc34)c(F)cc2Cl)nn1` [nedisertib], the “effect of nedisertib-IR combination on viability” value in experiment [5] is “virtually ineffective”. The “phosphorylation of serine-343 of NBS1 and serine-824 of KAP1 (unrepaired DNA damage)” value in experiment [6] was “sustained phosphorylation of serine-343 of NBS1 and serine-824 of KAP1”. In experiment [7] (eight PPR GBM PDOs, FIG. 5k), the “tumor cell viability, nedisertib-IR combination compared to each individual treatment” value is recorded as “marked reduction of tumor cell viability”. In experiment [7] (six of the eight PPR PDOs, even at the lowest concentrations of nedisertib), the “radiation dose enhancement factor (DEF)” value was greater than 2. Also, the “radiosensitivity by clonogenic assay” value in experiment [8] is “confirmed these results”. Also, the “serine-2056 phosphorylation of DNA-PKcs” value in experiment [9] was “inhibited serine-2056 phosphorylation of DNA-PKcs”. The “number of γH2AX foci” value in [10] is recorded as “remained elevated throughout the course of the experiment”.
In the case of “IGF1: growth factor used to stimulate GPM PDOs (10 ng/ml)”, in experiment [11], the “phosphorylation of PKCδ on tyr-311” value is recorded as “induced phosphorylation of PKCδ on tyr-311”.
Still for that read-out and setting: the same measure for “IGF2: growth factor used to stimulate GPM PDOs (10 ng/ml)”: “induced phosphorylation of PKCδ on tyr-311”; for “insulin: hormone used to stimulate GPM PDOs (100 ng/ml)”: “induced phosphorylation of PKCδ on tyr-311”.
